Assay results published in ChEMBL document CHEMBL1136816, “Synthesis and evaluation of ether and halogenated derivatives of mannopeptimycin glycopeptide antibiotics” (2003).
Converted amounts (≈) assume the structure as drawn. Each block holds one compound with its values, some of them ahead of it.

Legend:
Format in all cases: functional
Enterococcus sp. [1] = assay: In vitro minimum inhibitory concentration against Enterococcus species; 2-4
Streptococcus sp. [2] = assay: In vitro minimum inhibitory concentration against Streptococcus species; 0.12-0.5
Staphylococcus aureus [3] = assay: In vitro minimum inhibitory concentration against Staphylococcus aureus
Enterococcus sp. [4] = assay: In vitro minimum inhibitory concentration against Enterococcus species; 32->64
Streptococcus sp. [5] = assay: In vitro minimum inhibitory concentration against Streptococcus species; 8-32
Staphylococcus aureus [6] = assay: In vitro minimum inhibitory concentration against Staphylococcus aureus; 32-64
Enterococcus sp. [7] = assay: In vitro minimum inhibitory concentration against Enterococcus species; 4-32
Streptococcus sp. [8] = assay: In vitro minimum inhibitory concentration against Streptococcus species; 0.5-2
Staphylococcus aureus [9] = assay: In vitro minimum inhibitory concentration against Staphylococcus aureus; 2-8
Streptococcus sp. [10] = assay: In vitro minimum inhibitory concentration against Streptococcus species; </=0.06-0.12
Staphylococcus aureus [11] = assay: In vitro minimum inhibitory concentration against Staphylococcus aureus; 2-4
Staphylococcus aureus [12] = assay: In vitro minimum inhibitory concentration against Staphylococcus aureus; 1-8
Streptococcus sp. [13] = assay: In vitro minimum inhibitory concentration against Streptococcus species
Staphylococcus aureus [14] = assay: In vitro minimum inhibitory concentration against Staphylococcus aureus; 0.5-2
Enterococcus sp. [15] = assay: In vitro minimum inhibitory concentration against Enterococcus species; 16-32
Streptococcus sp. [16] = assay: In vitro minimum inhibitory concentration against Streptococcus species; 1-16
Staphylococcus aureus [17] = assay: In vitro minimum inhibitory concentration against Staphylococcus aureus; 16-32
Enterococcus sp. [18] = assay: In vitro minimum inhibitory concentration against Enterococcus species; 2-16
Staphylococcus aureus [19] = assay: In vitro minimum inhibitory concentration against Staphylococcus aureus; 1-4
Streptococcus sp. [20] = assay: In vitro minimum inhibitory concentration against Streptococcus species; </=0.12-0.5

Compound: Cc1ccc(COC[C@H]2O[C@H](O[C@H]3[C@H](O)[C@H](O)[C@@H](Oc4ccc(C[C@H]5NC(=O)[C@H]([C@@H](C)c6ccccc6)NC(=O)CNC(=O)[C@H](CO)NC(=O)[C@@H]([C@@H](O)[C@@H]6CN=C(N)N6[C@H]6O[C@H](CO)[C@@H](O)[C@H](O)[C@@H]6O)NC(=O)[C@H]([C@@H](O)[C@@H]6CN=C(N)N6)NC5=O)cc4)O[C@@H]3CO)[C@@H](O)[C@@H](O)[C@@H]2O)cc1
MIC (Enterococcus sp. [1]): 2 µg/mL (≈ 1.43 µM)
MIC (Streptococcus sp. [2]): 0.12 µg/mL (≈ 0.0857 µM)
MIC (Staphylococcus aureus [3]): 2 µg/mL (≈ 1.43 µM)

Compound: C[C@@H](c1ccccc1)[C@@H]1NC(=O)CNC(=O)[C@H](CO)NC(=O)[C@@H]([C@@H](O)[C@@H]2CN=C(N)N2[C@H]2O[C@H](CO)[C@@H](O)[C@H](O)[C@@H]2O)NC(=O)[C@H]([C@@H](O)[C@@H]2CN=C(N)N2)NC(=O)[C@@H](Cc2ccc(O[C@H]3O[C@H](CO)[C@@H](O[C@H]4O[C@H](COC/C=C/c5ccc(N(C)C)cc5)[C@@H](O)[C@H](O)[C@@H]4O)[C@H](O)[C@@H]3O)cc2)NC1=O
MIC (Enterococcus sp. [4]): 32 µg/mL (≈ 22 µM)
MIC (Streptococcus sp. [5]): 8 µg/mL (≈ 5.5 µM)
MIC (Staphylococcus aureus [6]): 32 µg/mL (≈ 22 µM)

Compound: COc1ccc(COC[C@H]2O[C@H](O[C@H]3[C@H](O)[C@H](O)[C@@H](Oc4ccc(C[C@H]5NC(=O)[C@H]([C@@H](C)c6ccccc6)NC(=O)CNC(=O)[C@H](CO)NC(=O)[C@@H]([C@@H](O)[C@@H]6CN=C(N)N6[C@H]6O[C@H](CO)[C@@H](O)[C@H](O)[C@@H]6O)NC(=O)[C@H]([C@@H](O)[C@@H]6CN=C(N)N6)NC5=O)cc4)O[C@@H]3CO)[C@@H](O)[C@@H](O)[C@@H]2O)cc1F
MIC (Enterococcus sp. [7]): 4 µg/mL (≈ 2.79 µM)
MIC (Streptococcus sp. [8]): 0.5 µg/mL (≈ 0.349 µM)
MIC (Staphylococcus aureus [9]): 2 µg/mL (≈ 1.4 µM)

Compound: C[C@@H](c1ccccc1)[C@@H]1NC(=O)CNC(=O)[C@H](CO)NC(=O)[C@@H]([C@@H](O)[C@@H]2CN=C(N)N2[C@H]2O[C@H](CO)[C@@H](O)[C@H](O)[C@@H]2O)NC(=O)[C@H]([C@@H](O)[C@@H]2CN=C(N)N2)NC(=O)[C@@H](Cc2ccc(O[C@H]3O[C@H](CO)[C@@H](O[C@H]4O[C@H](COCc5ccc(Oc6ccccc6)cc5)[C@@H](O)[C@H](O)[C@@H]4O)[C@H](O)[C@@H]3O)cc2)NC1=O
MIC (Enterococcus sp. [1]): 2 µg/mL (≈ 1.35 µM)
MIC (Streptococcus sp. [10]): ≤ 0.06 µg/mL
MIC (Staphylococcus aureus [11]): 2 µg/mL (≈ 1.35 µM)

Compound: C[C@@H](c1ccccc1)[C@@H]1NC(=O)CNC(=O)[C@H](CO)NC(=O)[C@@H]([C@@H](O)[C@@H]2CN=C(N)N2[C@H]2O[C@H](CO)[C@@H](O)[C@H](O)[C@@H]2O)NC(=O)[C@H]([C@@H](O)[C@@H]2CN=C(N)N2)NC(=O)[C@@H](Cc2ccc(O[C@H]3O[C@H](CO)[C@@H](O[C@H]4O[C@H](CO)[C@@H](OCc5ccc(OCc6ccccc6)cc5)[C@H](O)[C@@H]4O)[C@H](O)[C@@H]3O)cc2)NC1=O
MIC (Enterococcus sp. [1]): 2 µg/mL (≈ 1.34 µM)
MIC (Streptococcus sp. [13]): ≤ 0.06 µg/mL
MIC (Staphylococcus aureus [14]): 0.5 µg/mL (≈ 0.335 µM)

Next, values leading:

MIC (Enterococcus sp. [7]): 4 µg/mL (≈ 2.74 µM)
MIC (Streptococcus sp. [8]): 0.5 µg/mL (≈ 0.343 µM)
MIC (Staphylococcus aureus [12]): 1 µg/mL (≈ 0.685 µM)
Compound: CCOc1cc(COCC2O[C@H](O[C@H]3[C@H](O)[C@H](O)[C@@H](Oc4ccc(C[C@H]5NC(=O)[C@H]([C@@H](C)c6ccccc6)NC(=O)CNC(=O)[C@H](CO)NC(=O)[C@@H]([C@@H](O)[C@@H]6CN=C(N)N6[C@H]6O[C@H](CO)[C@@H](O)[C@H](O)[C@@H]6O)NC(=O)[C@H]([C@@H](O)[C@@H]6CN=C(N)N6)NC5=O)cc4)O[C@@H]3CO)[C@@H](O)[C@@H](O)[C@@H]2O)ccc1OC (some centres undefined)

MIC (Enterococcus sp. [15]): 16 µg/mL (≈ 11 µM)
MIC (Streptococcus sp. [16]): 1 µg/mL (≈ 0.688 µM)
MIC (Staphylococcus aureus [17]): 16 µg/mL (≈ 11 µM)
Compound: C[C@@H](c1ccccc1)[C@@H]1NC(=O)CNC(=O)[C@H](CO)NC(=O)[C@@H]([C@@H](O)[C@@H]2CN=C(N)N2[C@H]2O[C@H](CO)[C@@H](O)[C@H](O)[C@@H]2O)NC(=O)[C@H]([C@@H](O)[C@@H]2CN=C(N)N2)NC(=O)[C@@H](Cc2ccc(O[C@H]3O[C@H](CO)[C@@H](O[C@H]4O[C@H](CO)[C@@H](OC/C=C/c5ccc(N(C)C)cc5)[C@H](O)[C@@H]4O)[C@H](O)[C@@H]3O)cc2)NC1=O

MIC (Enterococcus sp. [18]): 2 µg/mL (≈ 1.36 µM)
MIC (Staphylococcus aureus [19]): 1 µg/mL (≈ 0.682 µM)
MIC (Streptococcus sp. [20]): ≤ 0.12 µg/mL
Compound: COc1ccc(COC[C@H]2O[C@H](O[C@H]3[C@H](O)[C@H](O)[C@@H](Oc4ccc(C[C@H]5NC(=O)[C@H]([C@@H](C)c6ccccc6)NC(=O)CNC(=O)[C@H](CO)NC(=O)[C@@H]([C@@H](O)[C@@H]6CN=C(N)N6[C@H]6O[C@H](CO)[C@@H](O)[C@H](O)[C@@H]6O)NC(=O)[C@H]([C@@H](O)[C@@H]6CN=C(N)N6)NC5=O)cc4)O[C@@H]3CO)[C@@H](O)[C@@H](O)[C@@H]2O)c2ccccc12
